Measurements taken from patent US20230233569A1 (Revolution Medicines, Inc., priority 2020, published 2023).
“And” between values parts separate entries of the source, which are not always exact repeats. Equal entries are not always repeated. Where two headings read alike, the source gives them in different places.

Key:
Assay in all cases: Disruption of BRAF RBD interaction with Ras (FRET / MOA assay, with Cyclophilin A)
Format in all cases: biochemical
NRAS G12C = NRAS G12C (Homo sapiens, UniProt P01111+P62937, G12C); settings: NRAS G12C; read-out: NRAS G12C FRET data IC50
Excerpt: (§1) This protocol may also be executed substituting other Ras proteins or nucleotides.
(§2) The purpose of this biochemical assay was to measure the ability of test compounds to facilitate ternary complex formation between a nucleotide-loaded K-Ras isoform and Cyclophilin A; the resulting ternary complex disrupts binding to a BRAF^RBD construct, inhibiting K-Ras signaling through a RAF effector. Data is reported as IC50 values.
(§3) Compound was present in plate wells as a 10-point 3-fold dilution series starting at a final concentration of 30 μM. After incubation at 25° C. for 3 hours, a mixture of Anti-His Eu-W1024 and anti-GST allophycocyanin was then added to assay sample wells at final concentrations of 10 nM and 50 nM, respectively, and the reaction incubated for an additional 1.5 hours. […] Compounds that facilitate disruption of a K-Ras:RAF complex were identified as those eliciting a decrease in the TR-FRET ratio relative to DMSO control wells.
as §2, with “BRAF^RBDD” for “BRAF^RBD”

KRAS G13C = KRAS G13C (Homo sapiens, UniProt P01116+P62937, G13C)
Excerpt: as §1, §2, §3
as §2, with “BRAF^RBDD” for “BRAF^RBD”

KRAS G12S = KRAS G12S (Homo sapiens, UniProt P01116+P62937, G12S)
Excerpt: as §1, §2, §3
as §2, with “BRAF^RBDD” for “BRAF^RBD”

KRAS G12V = KRAS G12V (Homo sapiens, UniProt P01116+P62937, G12V)
Excerpt: as §1, §2, §3
as §2, with “BRAF^RBDD” for “BRAF^RBD”

KRAS G12C = KRAS G12C (Homo sapiens, UniProt P01116+P62937, G12C)
Excerpt: as §1, §2, §3
as §2, with “BRAF^RBDD” for “BRAF^RBD”

KRAS WT = KRAS WT (Homo sapiens, UniProt P01116+P62937)
Excerpt: as §1, §2, §3
as §2, with “BRAF^RBDD” for “BRAF^RBD”

KRAS G12D = KRAS G12D (Homo sapiens, UniProt P01116+P62937, G12D)
Excerpt: as §1, §2, §3
as §2, with “BRAF^RBDD” for “BRAF^RBD”

[1] = KRAS G13C, read-out: KRAS G13C FRET data IC50
[2] = read-out: KRAS G12S FRET data, IC50
[3] = KRAS G12V, read-out: KRAS G12V FRET data IC50
[4] = KRAS G12C, read-out: KRAS G12C FRET data IC50
[5] = KRAS WT, read-out: KRAS WT FRET data IC50
[6] = read-out: KRAS G12D FRET data, IC50

KRAS G12D, sequence (P01116 1-169 isoform P01116-2 G12D limits assumed): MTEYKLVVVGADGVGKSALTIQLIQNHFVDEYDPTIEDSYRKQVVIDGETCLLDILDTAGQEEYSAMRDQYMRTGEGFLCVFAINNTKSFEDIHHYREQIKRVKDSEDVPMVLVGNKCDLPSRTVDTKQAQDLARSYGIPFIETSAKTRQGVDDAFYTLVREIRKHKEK
KRAS G12D, sequence (P62937 whole entry): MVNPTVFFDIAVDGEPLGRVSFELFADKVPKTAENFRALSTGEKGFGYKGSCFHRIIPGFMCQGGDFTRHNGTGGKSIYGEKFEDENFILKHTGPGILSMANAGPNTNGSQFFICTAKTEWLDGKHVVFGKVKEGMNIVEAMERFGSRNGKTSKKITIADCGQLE
KRAS G12C, sequence (P01116 1-169 isoform P01116-2 G12C): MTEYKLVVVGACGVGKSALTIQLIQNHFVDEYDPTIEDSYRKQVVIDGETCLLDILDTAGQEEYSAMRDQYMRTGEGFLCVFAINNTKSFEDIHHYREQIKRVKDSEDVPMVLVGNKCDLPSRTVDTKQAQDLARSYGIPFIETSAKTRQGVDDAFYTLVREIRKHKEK
KRAS G12C, sequence (P62937 whole entry): as the sequence (P62937 whole entry) above
KRAS WT, sequence (P01116 1-169 isoform P01116-2 limits assumed): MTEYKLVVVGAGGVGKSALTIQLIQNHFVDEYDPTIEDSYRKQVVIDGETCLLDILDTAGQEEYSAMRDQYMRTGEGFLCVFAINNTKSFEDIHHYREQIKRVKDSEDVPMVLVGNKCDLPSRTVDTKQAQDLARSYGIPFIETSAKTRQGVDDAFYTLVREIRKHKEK
KRAS WT, sequence (P62937 whole entry): as the sequence (P62937 whole entry) above
KRAS G12V, sequence (P01116 1-169 isoform P01116-2 G12V limits assumed): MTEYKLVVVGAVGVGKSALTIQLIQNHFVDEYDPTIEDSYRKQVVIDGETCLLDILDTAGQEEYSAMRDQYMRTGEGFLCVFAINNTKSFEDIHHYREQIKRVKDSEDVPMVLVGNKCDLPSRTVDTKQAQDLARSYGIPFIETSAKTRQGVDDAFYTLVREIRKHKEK
KRAS G12V, sequence (P62937 whole entry): as the sequence (P62937 whole entry) above
KRAS G12S, sequence (P01116 1-169 isoform P01116-2 G12S limits assumed): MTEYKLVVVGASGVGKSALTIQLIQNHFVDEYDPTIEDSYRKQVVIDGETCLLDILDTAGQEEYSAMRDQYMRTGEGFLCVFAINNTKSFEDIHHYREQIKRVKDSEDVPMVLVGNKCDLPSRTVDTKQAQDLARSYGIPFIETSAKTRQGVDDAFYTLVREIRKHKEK
KRAS G12S, sequence (P62937 whole entry): as the sequence (P62937 whole entry) above
KRAS G13C, sequence (P01116 1-169 isoform P01116-2 G13C): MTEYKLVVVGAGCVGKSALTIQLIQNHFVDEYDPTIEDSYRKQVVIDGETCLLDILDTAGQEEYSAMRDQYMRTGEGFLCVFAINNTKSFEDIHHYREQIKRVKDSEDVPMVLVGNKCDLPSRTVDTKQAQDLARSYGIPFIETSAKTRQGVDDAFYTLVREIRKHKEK
KRAS G13C, sequence (P62937 whole entry): as the sequence (P62937 whole entry) above
NRAS G12C, sequence (P01111 whole entry G12C): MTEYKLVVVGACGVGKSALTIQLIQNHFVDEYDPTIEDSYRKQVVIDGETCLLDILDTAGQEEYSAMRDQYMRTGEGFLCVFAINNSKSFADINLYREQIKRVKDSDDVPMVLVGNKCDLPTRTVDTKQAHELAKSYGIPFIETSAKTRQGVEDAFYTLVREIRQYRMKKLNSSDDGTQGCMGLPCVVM
NRAS G12C, sequence (P62937 whole entry): as the sequence (P62937 whole entry) above

| IC50 (NRAS G12C) | IC50 (KRAS G13C; [1]) | IC50 (KRAS G12S; [2]) | IC50 (KRAS G12V; [3]) | IC50 (KRAS G12C; [4]) | IC50 (KRAS WT; [5]) | IC50 (KRAS G12D; [6]) | Compound | IC50 (KRAS G13C; KRAS G13C FRET data IC50, KRAS G13C) | IC50 (KRAS G12S; KRAS G12S FRET data, IC50) | IC50 (KRAS G12V; KRAS G12V FRET data IC50, KRAS G12V) | IC50 (KRAS G12C; KRAS G12C FRET data IC50, KRAS G12C) | IC50 (KRAS WT; KRAS WT FRET data IC50, KRAS WT) | IC50 (KRAS G12D; KRAS G12D FRET data, IC50) |
| --- | --- | --- | --- | --- | --- | --- | --- | --- | --- | --- | --- | --- | --- |
| 100 to 1000 nM | – | – | – | – | – | – | C=CC(=O)N1CC[C@]2(COCCN2C(=O)N(C)[C@H](C(=O)N[C@H]2Cc3nc(cs3)-c3ccc4c(c3)c(c(-c3cccnc3[C@H](C)OC)n4CC)CC(C)(C)COC(=O)[C@@H]3CCCN(N3)C2=O)C(C)C)C1 (atropisomer, axis not shown) [Example A677] | – | – | – | – | – | – |
| – | 1000 to 10000 nM | 100 to 1000 nM | 100 to 1000 nM | 100 to 1000 nM | 1 to 10 µM | 1 to 10 µM | C=CC(=O)N1CC[C@H](C(=O)N(C)[C@H](C(=O)N[C@H]2Cc3cc(O)cc(c3)-c3ccc4c(c3)c(c(-c3ccccc3CCOC)n4C(C)(C)C#N)CC(C)(C)COC(=O)[C@@H]3CCCN(N3)C2=O)C(C)C)C1 [Example A034] | – | – | – | – | – | – |
| – | 1000 to 10000 nM | 1000 to 10000 nM | 1000 to 10000 nM | 100 to 1000 nM | 1 to 10 µM | > 10 µM | C=CC(=O)N1CC[C@H](C(=O)N(C)[C@H](C(=O)N[C@H]2Cc3cc(O)cc(c3)-c3ccc4c(c3)c(c(-c3ccc5cc(CN(C)C)n(C)c5c3)n4CC)CC(C)(C)COC(=O)[C@@H]3CCCN(N3)C2=O)C(C)C)C1 [Example A035] | – | – | – | – | – | – |
| – | – | – | – | – | – | – | C=CC(=O)N1CC[C@H](C(=O)N(C)[C@H](C(=O)N[C@H]2Cc3cc(OC(=O)NCC(=O)O)cc(c3)-c3ccc4c(c3)c(c(-c3ccccc3CCOC)n4CC)CC(C)(C)COC(=O)[C@@H]3CCCN(N3)C2=O)C(C)C)C1 [Example A036] | 100 to 1000 nM and > 10000 nM | 1000 to 10000 nM and > 10000 nM | 1000 to 10000 nM and > 10000 nM | 1000 to 10000 nM and > 10000 nM | 1 to 10 µM and > 10 µM | > 10 µM |
| – | 1000 to 10000 nM | 1000 to 10000 nM | 1000 to 10000 nM | 100 to 1000 nM | 1 to 10 µM | 1 to 10 µM | C=CC(=O)N1CC[C@H](C(=O)N(C)[C@H](C(=O)N[C@H]2Cc3cc(O)cc(c3)-c3ccc4c(c3)c(c(-c3ccc(C5CCN(C)CC5)cc3)n4CC)CC(C)(C)COC(=O)[C@@H]3CCCN(N3)C2=O)C(C)C)C1 [Example A039] | – | – | – | – | – | – |
| – | 1000 to 10000 nM | 100 to 1000 nM | 100 to 1000 nM | 100 to 1000 nM | 1 to 10 µM | > 10 µM | C=CC(=O)N1C[C@H](C)[C@H](C(=O)N(C)[C@H](C(=O)N[C@H]2Cc3cc(O)cc(c3)-c3ccc4c(c3)c(c(-c3ccccc3CCOC)n4CC)CC(C)(C)COC(=O)[C@@H]3CCCN(N3)C2=O)C(C)C)C1 [Example A041] | – | – | – | – | – | – |
| – | 100 to 1000 nM | 100 to 1000 nM | 100 to 1000 nM | 10 to 100 nM | 1 to 10 µM | 1 to 10 µM | C=CC(=O)N1CC[C@H](C(=O)N(C)[C@H](C(=O)N[C@H]2Cc3cc(O)cc(c3)-c3ccc4c(c3)c(c(-c3cccnc3COCC)n4CC)CC(C)(C)COC(=O)[C@@H]3CCCN(N3)C2=O)C(C)C)C1 [Example A044] | – | – | – | – | – | – |
| – | 10 to 100 nM | > 10000 nM | 1000 to 10000 nM | 100 to 1000 nM | > 10 µM | 1 to 10 µM | CCn1c(-c2ccccc2CN(C)C)c2c3cc(ccc31)-c1cc(O)cc(c1)C[C@H](NC(=O)[C@H](C(C)C)N(C)C(=O)c1ccc(NC(=O)/C=C/CN(C)C)cn1)C(=O)N1CCC[C@H](N1)C(=O)OCC(C)(C)C2 [Example A046] | – | – | – | – | – | – |
| – | 100 to 1000 nM | 100 to 1000 nM | 100 to 1000 nM | 10 to 100 nM | 1 to 10 µM | 1 to 10 µM | CCn1c(-c2ccccc2CN(C)C)c2c3cc(ccc31)-c1cc(O)cc(c1)C[C@H](NC(=O)[C@H](C(C)C)N(C)C(=O)[C@H]1CCN(C(=O)/C=C/CN(C)C)C1)C(=O)N1CCC[C@H](N1)C(=O)OCC(C)(C)C2 [Example A047] | – | – | – | – | – | – |
| – | 1000 to 10000 nM | 100 to 1000 nM | 100 to 1000 nM | 10 to 100 nM | 1 to 10 µM | 1 to 10 µM | C=CC(=O)N1CC[C@H](C(=O)N(C)[C@H](C(=O)N[C@H]2Cc3cc(O)cc(c3)-c3ccc4c(c3)c(c(-c3ccc(CN(C)C)cc3COC)n4CC)CC(C)(C)COC(=O)[C@@H]3CCCN(N3)C2=O)C(C)C)C1 [Example A051] | – | – | – | – | – | – |
